# Patent EP4691482A1, “LONG-ACTING CALCITONIN ANALOG” (Chengdu Aoda Biotechnology Co., Ltd., priority 2023, dated 2024)
# pEC50: −log10 of the molar value.
# Biological target: T1, calcitonin receptors (CTR) (Homo sapiens, UniProt P30988)
# T1 construct: expressed in transfected cells; host or cells: cAMP Hunter HEK293-CT-R Gs cell line (HEK293, stably transfected)
# T1 sequence (P30988 25-474): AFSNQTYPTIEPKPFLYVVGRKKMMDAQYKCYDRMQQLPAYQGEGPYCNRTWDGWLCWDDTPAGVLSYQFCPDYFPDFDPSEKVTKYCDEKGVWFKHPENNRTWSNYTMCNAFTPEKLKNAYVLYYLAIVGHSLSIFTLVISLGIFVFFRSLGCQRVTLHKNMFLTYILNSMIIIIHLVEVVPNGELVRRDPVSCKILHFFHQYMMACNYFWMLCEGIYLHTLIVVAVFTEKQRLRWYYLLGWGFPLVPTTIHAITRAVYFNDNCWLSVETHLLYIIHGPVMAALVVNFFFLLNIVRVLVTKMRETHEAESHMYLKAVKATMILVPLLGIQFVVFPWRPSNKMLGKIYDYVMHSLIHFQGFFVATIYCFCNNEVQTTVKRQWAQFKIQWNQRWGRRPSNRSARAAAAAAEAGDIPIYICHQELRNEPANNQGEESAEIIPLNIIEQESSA
# Assay: cAMP determination (HTRF, cAMP Dynamic 2 Kit) in cAMP Hunter HEK293-CT-R Gs cell line
# Type: cell-based
# Settings: HEK293 cell line stably expressing CT-R; intracellular cAMP, HTRF
# Source text: Upon activation by a ligand, Gas-coupled GPCRs can upregulate intracellular cAMP level, and cAMP, as a second messenger, can mediate a series of cellular responses. The cAMP Hunter HEK293-CT-R Gs cell line, which overexpresses Gas-coupled calcitonin receptors (CTR), was used. The binding of calcitonin (or an analog thereof) to the overexpressed CTR upregulates intracellular cAMP level. The amount of intracellular cAMP produced after activation by the calcitonin (or an analog thereof) was detected using a cAMP Dynamic 2 Kit to evaluate the biological activity of the calcitonin (or an analog thereof). HEK293 cell line stably expressing CT-R was used. Stably transfected cells were stimulated with various concentrations of agonists. The time-resolved fluorescence resonance energy signal from the cells after stimulation with different doses was measured using HTRF technology, from which the biological activity of the agonist was subsequently calculated.
row,SMILES,pEC50
1,CC(C)C[C@H](NC(=O)[C@H](CCCCN)NC(=O)CNC(=O)[C@H](CC(C)C)NC(=O)[C@@H](NC(=O)[C@@H]1CSSC[C@H](N)C(=O)N[C@@H](CO)C(=O)N[C@@H](CC(N)=O)C(=O)N[C@@H](CC(C)C)C(=O)N[C@@H](CO)C(=O)N[C@@H]([C@@H](C)O)C(=O)N1)C(C)C)C(=O)N[C@@H](CO)C(=O)N[C@@H](CCC(N)=O)C(=O)N[C@@H](CCC(=O)O)C(=O)N[C@@H](CC(C)C)C(=O)N[C@@H](Cc1c[nH]cn1)C(=O)N[C@@H](CCCCNC(=O)CNC(=O)CNC(=O)CNC(=O)CC[C@H](NC(=O)CCCCCCCCCCCCCCCCCCC(=O)O)C(=O)O)C(=O)N[C@@H](CC(C)C)C(=O)N[C@@H](CCC(N)=O)C(=O)N[C@H](C(=O)N[C@@H](Cc1ccc(O)cc1)C(=O)N1CCC[C@H]1C(=O)N[C@@H](CCCNC(=N)N)C(=O)N[C@H](C(=O)N[C@@H](CC(N)=O)C(=O)N[C@H](C(=O)NCC(=O)N[C@@H](CO)C(=O)NCC(=O)N[C@H](C(=O)N1CCC[C@H]1C(N)=O)[C@@H](C)O)[C@@H](C)O)[C@@H](C)O)[C@@H](C)O [Compound 12],11.41
2,"CC(C)C[C@H](NC(=O)[C@H](CCCCN)NC(=O)CNC(=O)[C@H](CC(C)C)NC(=O)[C@@H](NC(=O)[C@@H]1CSSC[C@H](N)C(=O)N[C@@H](CO)C(=O)N[C@@H](CC(N)=O)C(=O)N[C@@H](CC(C)C)C(=O)N[C@@H](CO)C(=O)N[C@@H]([C@@H](C)O)C(=O)N1)C(C)C)C(=O)N[C@@H](CO)C(=O)N[C@@H](CCC(N)=O)C(=O)N[C@@H](CCC(=O)O)C(=O)N[C@@H](CC(C)C)C(=O)N[C@@H](Cc1c[nH]cn1)C(=O)N[C@@H](CCCCNC(=O)COCCOCCNC(=O)COCCOCCNC(=O)COCCOCCNC(=O)CC[C@H](NC(=O)CCCCCCCCCCCCCCCCCCC(=O)O)C(=O)O)C(=O)N[C@@H](CC(C)C)C(=O)N[C@@H](CCC(N)=O)C(=O)N[C@H](C(=O)N[C@@H](Cc1ccc(O)cc1)C(=O)N1CCC[C@H]1C(=O)N[C@@H](CCCNC(=N)N)C(=O)N[C@H](C(=O)N[C@@H](CC(N)=O)C(=O)N[C@H](C(=O)NCC(=O)N[C@@H](CO)C(=O)NCC(=O)N[C@H](C(=O)N1CCC[C@H]1C(N)=O)[C@@H](C)O)[C@@H](C)O)[C@@H](C)O)[C@@H](C)O [Compound 17, Cys-Ser-Asn-Leu-Ser-Thr-Cys-Val-Leu-Gly-Lys-Leu-Ser-Gln-Glu-Leu-His-Lys(AEEA-AEEA-AEEA-γGlu-eicosanedioic acid)-Leu-Gln-Thr-T yr-Pro-Arg-Thr-Asn-Thr-Gly-Ser-Gly-Thr-Pro-NH2]",11.51

# Same assay, conditions: relative to Salmon Calcitonin = 100.0; HEK293 CT-R cAMP
row,SMILES,Relative Activity% [%]
1,"CC(C)C[C@H](NC(=O)[C@H](CCCCN)NC(=O)CNC(=O)[C@H](CC(C)C)NC(=O)[C@@H](NC(=O)[C@@H]1CSSC[C@H](N)C(=O)N[C@@H](CO)C(=O)N[C@@H](CC(N)=O)C(=O)N[C@@H](CC(C)C)C(=O)N[C@@H](CO)C(=O)N[C@@H]([C@@H](C)O)C(=O)N1)C(C)C)C(=O)N[C@@H](CO)C(=O)N[C@@H](CCC(N)=O)C(=O)N[C@@H](CCC(=O)O)C(=O)N[C@@H](CC(C)C)C(=O)N[C@@H](Cc1c[nH]cn1)C(=O)N[C@@H](CCCCNC(=O)COCCOCCOCCOCCNC(=O)CC[C@H](NC(=O)CCCCCCCCCCCCCCCCCCC(=O)O)C(=O)O)C(=O)N[C@@H](CC(C)C)C(=O)N[C@@H](CCC(N)=O)C(=O)N[C@H](C(=O)N[C@@H](Cc1ccc(O)cc1)C(=O)N1CCC[C@H]1C(=O)N[C@@H](CCCNC(=N)N)C(=O)N[C@H](C(=O)N[C@@H](CC(N)=O)C(=O)N[C@H](C(=O)NCC(=O)N[C@@H](CO)C(=O)NCC(=O)N[C@H](C(=O)N1CCC[C@H]1C(N)=O)[C@@H](C)O)[C@@H](C)O)[C@@H](C)O)[C@@H](C)O [Compound 4, Cys-Ser-Asn-Leu-Ser-Thr-Cys-Val-Leu-Gly-Lys-Leu-Ser-Gln-Glu-Leu-His-Lys(PEG4CH2CO-yGlu-eicosanedioic acid)-Leu-Gln-Thr-Tyr-Pro-Arg-Thr-Asn-Thr-Gly-Ser-Gly-Thr-Pro-NH2]",316.7
2,"CC(C)C[C@H](NC(=O)[C@H](CCCCN)NC(=O)CNC(=O)[C@H](CC(C)C)NC(=O)[C@@H](NC(=O)[C@@H]1CSSC[C@H](N)C(=O)N[C@@H](CO)C(=O)N[C@@H](CC(N)=O)C(=O)N[C@@H](CC(C)C)C(=O)N[C@@H](CO)C(=O)N[C@@H]([C@@H](C)O)C(=O)N1)C(C)C)C(=O)N[C@@H](CO)C(=O)N[C@@H](CCC(N)=O)C(=O)N[C@@H](CCC(=O)O)C(=O)N[C@@H](CC(C)C)C(=O)N[C@@H](Cc1c[nH]cn1)C(=O)N[C@@H](CCCCNC(=O)COCCNC(=O)CC[C@H](NC(=O)CCCCCCCCCCCCCCCCCCC(=O)O)C(=O)O)C(=O)N[C@@H](CC(C)C)C(=O)N[C@@H](CCC(N)=O)C(=O)N[C@H](C(=O)N[C@@H](Cc1ccc(O)cc1)C(=O)N1CCC[C@H]1C(=O)N[C@@H](CCCNC(=N)N)C(=O)N[C@H](C(=O)N[C@@H](CC(N)=O)C(=O)N[C@H](C(=O)NCC(=O)N[C@@H](CO)C(=O)NCC(=O)N[C@H](C(=O)N1CCC[C@H]1C(N)=O)[C@@H](C)O)[C@@H](C)O)[C@@H](C)O)[C@@H](C)O [Compound 1, Cys-Ser-Asn-Leu-Ser-Thr-Cys-Val-Leu-Gly-Lys-Leu-Ser-Gln-Glu-Leu-His-Lys(PEG1CH2CO-γGlu-eicosanedioic acid)-Leu-Gln-Thr-Tyr-Pro-Arg-Thr-Asn-Thr-Gly-Ser-Gly-Thr-Pro-NH2]",206.5
3,"CC(C)C[C@H](NC(=O)[C@H](CCCCN)NC(=O)CNC(=O)[C@H](CC(C)C)NC(=O)[C@@H](NC(=O)[C@@H]1CSSC[C@H](N)C(=O)N[C@@H](CO)C(=O)N[C@@H](CC(N)=O)C(=O)N[C@@H](CC(C)C)C(=O)N[C@@H](CO)C(=O)N[C@@H]([C@@H](C)O)C(=O)N1)C(C)C)C(=O)N[C@@H](CO)C(=O)N[C@@H](CCC(N)=O)C(=O)N[C@@H](CCC(=O)O)C(=O)N[C@@H](CC(C)C)C(=O)N[C@@H](Cc1c[nH]cn1)C(=O)N[C@@H](CCCCNC(=O)COCCOCCNC(=O)CC[C@H](NC(=O)CCCCCCCCCCCCCCCCCCC(=O)O)C(=O)O)C(=O)N[C@@H](CC(C)C)C(=O)N[C@@H](CCC(N)=O)C(=O)N[C@H](C(=O)N[C@@H](Cc1ccc(O)cc1)C(=O)N1CCC[C@H]1C(=O)N[C@@H](CCCNC(=N)N)C(=O)N[C@H](C(=O)N[C@@H](CC(N)=O)C(=O)N[C@H](C(=O)NCC(=O)N[C@@H](CO)C(=O)NCC(=O)N[C@H](C(=O)N1CCC[C@H]1C(N)=O)[C@@H](C)O)[C@@H](C)O)[C@@H](C)O)[C@@H](C)O [Compound 2, Cys-Ser-Asn-Leu-Ser-Thr-Cys-Val-Leu-Gly-Lys-Leu-Ser-Gln-Glu-Leu-His-Lys(PEG2CH2CO-γGlu-eicosanedioic acid)-Leu-Gln-Thr-Tyr-Pro-Arg-Thr-Asn-Thr-Gly-Ser-Gly-Thr-Pro-NH2]",231.7
4,"CC(C)C[C@H](NC(=O)[C@H](CCCCN)NC(=O)CNC(=O)[C@H](CC(C)C)NC(=O)[C@@H](NC(=O)[C@@H]1CSSC[C@H](N)C(=O)N[C@@H](CO)C(=O)N[C@@H](CC(N)=O)C(=O)N[C@@H](CC(C)C)C(=O)N[C@@H](CO)C(=O)N[C@@H]([C@@H](C)O)C(=O)N1)C(C)C)C(=O)N[C@@H](CO)C(=O)N[C@@H](CCC(N)=O)C(=O)N[C@@H](CCC(=O)O)C(=O)N[C@@H](CC(C)C)C(=O)N[C@@H](Cc1c[nH]cn1)C(=O)N[C@@H](CCCCNC(=O)COCCOCCOCCNC(=O)CC[C@H](NC(=O)CCCCCCCCCCCCCCCCCCC(=O)O)C(=O)O)C(=O)N[C@@H](CC(C)C)C(=O)N[C@@H](CCC(N)=O)C(=O)N[C@H](C(=O)N[C@@H](Cc1ccc(O)cc1)C(=O)N1CCC[C@H]1C(=O)N[C@@H](CCCNC(=N)N)C(=O)N[C@H](C(=O)N[C@@H](CC(N)=O)C(=O)N[C@H](C(=O)NCC(=O)N[C@@H](CO)C(=O)NCC(=O)N[C@H](C(=O)N1CCC[C@H]1C(N)=O)[C@@H](C)O)[C@@H](C)O)[C@@H](C)O)[C@@H](C)O [Compound 3, Cys-Ser-Asn-Leu-Ser-Thr-Cys-Val-Leu-Gly-Lys-Leu-Ser-Gln-Glu-Leu-His-Lys(PEG3CH2CO-yGlu-eicosanedioic acid)-Leu-Gln-Thr-Tyr-Pro-Arg-Thr-Asn-Thr-Gly-Ser-Gly-Thr-Pro-NH2]",256.8
